Measurements: publication PMC11345841, “Exploring 2-Sulfonylpyrimidine Warheads as Acrylamide Surrogates for Targeted Covalent Inhibition: A BTK Story” (Journal of Medicinal Chemistry, 2024)
Read-outs that look alike come from different tables or passages of the source.

What was measured:
ITK, full length = target: T1, ITK, full length (Homo sapiens, UniProt Q08881); assay: PhosphoSens enzymatic IC50 (AssayQuant)
T1 sequence (Q08881 1-620): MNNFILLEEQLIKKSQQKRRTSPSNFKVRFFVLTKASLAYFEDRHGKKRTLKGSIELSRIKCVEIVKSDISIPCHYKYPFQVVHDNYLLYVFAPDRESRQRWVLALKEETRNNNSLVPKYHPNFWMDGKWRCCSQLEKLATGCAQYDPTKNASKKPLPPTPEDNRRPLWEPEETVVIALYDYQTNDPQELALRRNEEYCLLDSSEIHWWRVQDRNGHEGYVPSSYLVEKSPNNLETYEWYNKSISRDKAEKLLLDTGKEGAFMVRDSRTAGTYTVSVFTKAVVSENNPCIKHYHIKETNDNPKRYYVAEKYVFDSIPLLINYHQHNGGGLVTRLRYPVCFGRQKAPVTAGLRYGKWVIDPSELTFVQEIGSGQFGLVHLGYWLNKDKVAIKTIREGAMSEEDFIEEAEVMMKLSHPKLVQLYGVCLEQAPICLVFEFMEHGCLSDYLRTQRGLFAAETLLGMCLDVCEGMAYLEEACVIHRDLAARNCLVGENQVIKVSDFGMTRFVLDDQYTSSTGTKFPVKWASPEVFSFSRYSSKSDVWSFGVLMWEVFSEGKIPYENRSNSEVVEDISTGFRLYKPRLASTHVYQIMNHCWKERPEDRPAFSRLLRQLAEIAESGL

[1] = target: T2, EGFR, cytoplasmic domain (669–1210) (Homo sapiens, UniProt P00533); assay: PhosphoSens enzymatic IC50 (AssayQuant); type: biochemical; details: no preincubation
T2 construct: GST (N); purchased Carna Biosciences
Description: (§1) Biochemical enzymatic IC50 data were generated by AssayQuant Technologies (Marlborough, MA) using the PhosphoSens Platform. […] Reaction rate versus log [inhibitor concentration] data were fitted to the four-parameter logistic equation [drawing 1]

BTK, full length (2–659) = BTK, full length (2–659) (Homo sapiens, UniProt Q06187); assay: PhosphoSens enzymatic IC50 (AssayQuant); type: biochemical; details: for IC50: 1 nM BTK, 1.0 mM ATP
Description: as §1

SRMS = target: T3, SRMS (Homo sapiens, UniProt Q9H3Y6); assay: KINOMEscan ScanTK; type: binding; details: SRMS
T3 construct: purchased Eurofins DiscoverX KINOMEscan (scanTK)

INSR = target: T4, INSR (Homo sapiens, UniProt P06213); assay: KINOMEscan ScanTK; type: binding
T4 construct: purchased Eurofins DiscoverX KINOMEscan (scanTK)

SRC = target: T5, SRC (Homo sapiens, UniProt P12931); assay: KINOMEscan ScanTK; type: binding
T5 construct: purchased Eurofins DiscoverX KINOMEscan (scanTK)

EPHA1 = target: T6, EPHA1 (Homo sapiens, UniProt P21709); assay: KINOMEscan ScanTK; type: binding
T6 construct: purchased Eurofins DiscoverX KINOMEscan (scanTK)
T6 sequence (P21709 26-976): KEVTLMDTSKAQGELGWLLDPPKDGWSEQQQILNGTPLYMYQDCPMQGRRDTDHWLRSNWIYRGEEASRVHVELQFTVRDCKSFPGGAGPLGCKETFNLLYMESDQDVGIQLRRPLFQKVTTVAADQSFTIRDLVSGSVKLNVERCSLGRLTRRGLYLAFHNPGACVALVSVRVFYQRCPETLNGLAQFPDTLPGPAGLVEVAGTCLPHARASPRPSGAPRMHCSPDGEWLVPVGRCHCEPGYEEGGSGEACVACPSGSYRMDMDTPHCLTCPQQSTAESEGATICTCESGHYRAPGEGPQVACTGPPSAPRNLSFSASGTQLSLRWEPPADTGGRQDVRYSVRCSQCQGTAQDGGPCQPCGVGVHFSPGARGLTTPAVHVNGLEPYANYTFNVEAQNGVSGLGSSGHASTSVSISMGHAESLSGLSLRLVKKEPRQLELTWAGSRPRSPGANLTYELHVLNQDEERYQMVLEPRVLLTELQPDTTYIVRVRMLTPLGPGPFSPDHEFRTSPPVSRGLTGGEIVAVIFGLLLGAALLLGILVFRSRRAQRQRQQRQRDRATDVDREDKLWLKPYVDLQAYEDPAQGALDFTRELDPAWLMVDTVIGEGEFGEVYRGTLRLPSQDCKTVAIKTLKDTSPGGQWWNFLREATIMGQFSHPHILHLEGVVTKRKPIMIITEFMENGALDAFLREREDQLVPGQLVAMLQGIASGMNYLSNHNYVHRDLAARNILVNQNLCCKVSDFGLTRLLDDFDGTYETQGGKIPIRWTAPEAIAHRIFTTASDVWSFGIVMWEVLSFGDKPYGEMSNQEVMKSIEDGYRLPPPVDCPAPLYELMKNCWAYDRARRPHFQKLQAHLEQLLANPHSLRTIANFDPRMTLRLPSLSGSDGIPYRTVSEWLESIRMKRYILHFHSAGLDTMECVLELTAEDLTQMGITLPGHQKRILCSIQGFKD

ERBB2 = target: T7, ERBB2 (Homo sapiens, UniProt P04626); assay: KINOMEscan ScanTK; type: binding; details: ERBB2
T7 construct: purchased Eurofins DiscoverX KINOMEscan (scanTK)

EGFR(L858R,T790M) = target: T8, EGFR(L858R,T790M) (Homo sapiens, UniProt P00533, L858R/T790M); assay: KINOMEscan ScanTK; type: binding
T8 construct: purchased Eurofins DiscoverX KINOMEscan (scanTK)

FAK = target: T9, FAK (Homo sapiens, UniProt Q05397); assay: KINOMEscan ScanTK; type: binding
T9 construct: purchased Eurofins DiscoverX KINOMEscan (scanTK)

EPHA4 = target: T10, EPHA4 (Homo sapiens, UniProt P54764); assay: KINOMEscan ScanTK; type: binding
T10 construct: purchased Eurofins DiscoverX KINOMEscan (scanTK)

[2] = target: T11, ABL1(T315I)-phosphorylated (Homo sapiens, UniProt P00519, T315I); assay: KINOMEscan ScanTK; type: binding
T11 construct: purchased Eurofins DiscoverX KINOMEscan (scanTK)

EPHA7 = target: T12, EPHA7 (Homo sapiens, UniProt Q15375); assay: KINOMEscan ScanTK; type: binding
T12 construct: purchased Eurofins DiscoverX KINOMEscan (scanTK)

[3] = target: T13, JAK1(JH2domain-pseudokinase) (Homo sapiens, UniProt P23458); assay: KINOMEscan ScanTK; type: binding
T13 construct: JAK1(JH2domain-pseudokinase); purchased Eurofins DiscoverX KINOMEscan (scanTK)
T13 sequence (P23458 583-855 limits assumed): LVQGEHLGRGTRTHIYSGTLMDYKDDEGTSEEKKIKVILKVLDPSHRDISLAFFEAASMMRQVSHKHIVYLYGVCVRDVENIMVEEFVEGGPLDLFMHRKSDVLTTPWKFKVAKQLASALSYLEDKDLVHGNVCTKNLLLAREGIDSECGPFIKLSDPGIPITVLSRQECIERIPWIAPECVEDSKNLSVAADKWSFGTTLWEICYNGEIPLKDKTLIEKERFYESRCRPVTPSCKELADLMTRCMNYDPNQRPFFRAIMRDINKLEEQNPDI

T8 sequence (P00533 25-1210 T790M/L858R): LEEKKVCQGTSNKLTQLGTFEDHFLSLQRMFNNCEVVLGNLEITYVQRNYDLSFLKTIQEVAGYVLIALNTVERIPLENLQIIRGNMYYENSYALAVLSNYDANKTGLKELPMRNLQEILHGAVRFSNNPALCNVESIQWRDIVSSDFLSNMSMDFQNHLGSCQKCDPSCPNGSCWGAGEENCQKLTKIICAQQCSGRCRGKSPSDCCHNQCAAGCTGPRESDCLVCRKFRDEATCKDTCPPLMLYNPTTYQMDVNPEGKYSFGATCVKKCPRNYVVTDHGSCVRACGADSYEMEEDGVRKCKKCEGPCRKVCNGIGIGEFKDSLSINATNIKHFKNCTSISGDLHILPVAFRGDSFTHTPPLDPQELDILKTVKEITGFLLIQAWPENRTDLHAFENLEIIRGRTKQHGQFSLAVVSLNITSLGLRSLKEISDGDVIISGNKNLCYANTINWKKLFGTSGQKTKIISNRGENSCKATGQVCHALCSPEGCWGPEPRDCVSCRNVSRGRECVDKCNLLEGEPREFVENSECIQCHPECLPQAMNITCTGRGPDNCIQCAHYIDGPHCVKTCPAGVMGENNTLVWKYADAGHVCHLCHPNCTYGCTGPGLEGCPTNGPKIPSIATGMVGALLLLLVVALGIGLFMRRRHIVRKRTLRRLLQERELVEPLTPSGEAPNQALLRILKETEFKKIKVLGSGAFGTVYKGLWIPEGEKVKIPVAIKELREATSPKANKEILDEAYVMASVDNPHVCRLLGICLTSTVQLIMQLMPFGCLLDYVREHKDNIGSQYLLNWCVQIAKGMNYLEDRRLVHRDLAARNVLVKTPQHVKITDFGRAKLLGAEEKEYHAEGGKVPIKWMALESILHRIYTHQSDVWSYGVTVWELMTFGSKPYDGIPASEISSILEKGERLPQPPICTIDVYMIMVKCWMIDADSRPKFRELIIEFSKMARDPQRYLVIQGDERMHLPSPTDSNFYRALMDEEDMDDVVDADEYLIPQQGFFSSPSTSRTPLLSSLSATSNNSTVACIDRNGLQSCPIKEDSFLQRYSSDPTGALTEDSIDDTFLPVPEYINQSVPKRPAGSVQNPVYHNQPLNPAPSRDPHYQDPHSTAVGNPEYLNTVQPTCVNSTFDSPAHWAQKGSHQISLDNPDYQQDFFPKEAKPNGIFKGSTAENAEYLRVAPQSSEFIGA
T9 sequence (Q05397 whole entry): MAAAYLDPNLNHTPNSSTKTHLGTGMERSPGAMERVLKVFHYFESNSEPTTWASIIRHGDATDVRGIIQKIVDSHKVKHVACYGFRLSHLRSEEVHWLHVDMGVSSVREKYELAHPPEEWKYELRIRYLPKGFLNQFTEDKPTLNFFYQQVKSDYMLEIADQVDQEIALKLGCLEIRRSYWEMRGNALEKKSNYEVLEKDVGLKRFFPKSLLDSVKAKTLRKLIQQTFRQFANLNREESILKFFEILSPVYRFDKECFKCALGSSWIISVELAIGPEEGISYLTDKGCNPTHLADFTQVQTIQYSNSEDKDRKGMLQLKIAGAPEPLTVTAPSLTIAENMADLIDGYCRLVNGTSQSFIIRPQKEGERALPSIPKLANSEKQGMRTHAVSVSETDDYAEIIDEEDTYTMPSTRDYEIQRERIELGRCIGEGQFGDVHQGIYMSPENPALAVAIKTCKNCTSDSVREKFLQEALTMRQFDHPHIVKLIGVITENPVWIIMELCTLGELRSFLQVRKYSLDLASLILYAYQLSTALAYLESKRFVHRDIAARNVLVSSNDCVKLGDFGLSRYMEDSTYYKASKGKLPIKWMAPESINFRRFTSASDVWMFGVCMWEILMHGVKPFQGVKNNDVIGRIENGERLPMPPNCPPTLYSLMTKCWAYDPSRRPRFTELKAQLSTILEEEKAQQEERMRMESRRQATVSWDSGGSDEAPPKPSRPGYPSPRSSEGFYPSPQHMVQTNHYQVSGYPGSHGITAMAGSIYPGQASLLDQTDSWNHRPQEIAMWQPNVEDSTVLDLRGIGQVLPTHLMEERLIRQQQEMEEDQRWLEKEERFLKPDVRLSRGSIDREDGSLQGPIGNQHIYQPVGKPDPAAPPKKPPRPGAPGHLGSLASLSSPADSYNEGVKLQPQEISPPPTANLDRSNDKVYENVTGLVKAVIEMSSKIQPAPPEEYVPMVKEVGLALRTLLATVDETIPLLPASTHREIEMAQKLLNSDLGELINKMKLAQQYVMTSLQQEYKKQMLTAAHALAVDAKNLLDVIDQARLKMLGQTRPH
T7 sequence (P04626 23-1255): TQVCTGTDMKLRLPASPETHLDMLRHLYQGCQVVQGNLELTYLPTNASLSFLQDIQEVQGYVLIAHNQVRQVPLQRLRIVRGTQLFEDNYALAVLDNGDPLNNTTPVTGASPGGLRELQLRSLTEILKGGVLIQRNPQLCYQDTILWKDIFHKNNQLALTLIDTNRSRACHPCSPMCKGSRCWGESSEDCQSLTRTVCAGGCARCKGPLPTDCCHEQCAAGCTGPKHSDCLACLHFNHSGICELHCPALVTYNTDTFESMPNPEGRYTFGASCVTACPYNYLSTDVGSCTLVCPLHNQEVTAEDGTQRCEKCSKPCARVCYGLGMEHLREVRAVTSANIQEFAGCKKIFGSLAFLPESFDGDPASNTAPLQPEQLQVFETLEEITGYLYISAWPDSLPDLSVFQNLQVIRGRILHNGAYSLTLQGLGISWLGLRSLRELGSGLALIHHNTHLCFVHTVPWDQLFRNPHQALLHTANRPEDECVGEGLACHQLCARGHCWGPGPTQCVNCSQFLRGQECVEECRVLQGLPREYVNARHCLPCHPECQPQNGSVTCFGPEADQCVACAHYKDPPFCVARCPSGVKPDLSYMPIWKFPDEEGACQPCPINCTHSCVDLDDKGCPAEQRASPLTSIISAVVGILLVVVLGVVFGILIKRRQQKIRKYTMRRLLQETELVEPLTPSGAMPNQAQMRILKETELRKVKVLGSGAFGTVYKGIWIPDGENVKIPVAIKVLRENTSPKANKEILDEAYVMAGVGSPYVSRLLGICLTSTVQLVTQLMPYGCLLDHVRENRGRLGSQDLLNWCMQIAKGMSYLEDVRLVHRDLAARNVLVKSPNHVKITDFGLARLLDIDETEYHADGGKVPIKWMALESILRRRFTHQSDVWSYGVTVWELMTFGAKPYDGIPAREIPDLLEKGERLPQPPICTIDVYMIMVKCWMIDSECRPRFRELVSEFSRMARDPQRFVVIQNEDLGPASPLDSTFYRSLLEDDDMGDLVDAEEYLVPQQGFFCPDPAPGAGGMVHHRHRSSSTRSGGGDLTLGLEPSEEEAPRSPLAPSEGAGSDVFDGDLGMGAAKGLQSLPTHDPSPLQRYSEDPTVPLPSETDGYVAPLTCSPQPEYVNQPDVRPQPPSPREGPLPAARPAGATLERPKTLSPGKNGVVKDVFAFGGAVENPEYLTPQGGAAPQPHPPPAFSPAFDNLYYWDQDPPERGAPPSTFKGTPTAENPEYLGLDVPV
T4 sequence (P06213 28-1382): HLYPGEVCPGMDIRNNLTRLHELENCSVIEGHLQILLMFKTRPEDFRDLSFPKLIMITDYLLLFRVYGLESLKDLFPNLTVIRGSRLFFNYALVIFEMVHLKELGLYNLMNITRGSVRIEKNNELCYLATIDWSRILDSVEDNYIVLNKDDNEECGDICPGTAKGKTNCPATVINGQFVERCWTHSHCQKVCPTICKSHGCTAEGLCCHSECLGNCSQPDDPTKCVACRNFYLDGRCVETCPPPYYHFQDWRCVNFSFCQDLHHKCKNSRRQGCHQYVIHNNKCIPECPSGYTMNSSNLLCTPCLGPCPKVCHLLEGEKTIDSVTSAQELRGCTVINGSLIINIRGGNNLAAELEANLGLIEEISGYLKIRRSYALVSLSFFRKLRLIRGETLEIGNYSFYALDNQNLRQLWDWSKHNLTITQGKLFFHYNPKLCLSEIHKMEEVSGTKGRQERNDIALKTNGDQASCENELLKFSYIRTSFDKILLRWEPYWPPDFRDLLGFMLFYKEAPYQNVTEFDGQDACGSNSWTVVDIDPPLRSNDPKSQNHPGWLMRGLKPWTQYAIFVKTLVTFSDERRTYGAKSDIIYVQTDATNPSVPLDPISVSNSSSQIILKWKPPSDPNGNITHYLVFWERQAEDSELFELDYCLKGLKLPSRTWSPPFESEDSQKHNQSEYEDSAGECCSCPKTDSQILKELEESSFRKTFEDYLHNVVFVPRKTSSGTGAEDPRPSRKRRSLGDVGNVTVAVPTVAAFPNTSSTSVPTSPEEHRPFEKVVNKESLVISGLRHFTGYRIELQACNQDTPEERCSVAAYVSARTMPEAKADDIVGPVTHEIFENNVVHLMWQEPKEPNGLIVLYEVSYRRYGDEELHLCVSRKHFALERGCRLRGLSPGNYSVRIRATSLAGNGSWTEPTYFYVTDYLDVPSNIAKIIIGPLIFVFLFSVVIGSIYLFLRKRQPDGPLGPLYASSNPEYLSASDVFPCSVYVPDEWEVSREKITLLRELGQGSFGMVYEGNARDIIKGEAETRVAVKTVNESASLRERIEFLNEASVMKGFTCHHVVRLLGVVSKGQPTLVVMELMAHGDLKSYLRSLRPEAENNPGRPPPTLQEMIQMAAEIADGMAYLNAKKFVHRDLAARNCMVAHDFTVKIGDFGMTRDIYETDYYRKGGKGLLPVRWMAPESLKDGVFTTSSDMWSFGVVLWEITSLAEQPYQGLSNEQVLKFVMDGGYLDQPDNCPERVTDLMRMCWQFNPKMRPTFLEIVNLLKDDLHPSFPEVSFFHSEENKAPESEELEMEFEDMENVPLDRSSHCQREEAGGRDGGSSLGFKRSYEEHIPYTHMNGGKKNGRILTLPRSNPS

CNC(=O)c1cnc(S(C)(=O)=O)nc1N1CCCC(n2nc(-c3ccc(Oc4ccccc4)cc3)c3c(N)ncnc32)C1 (stereo not shown) [Compound 8d, 4-(3-(4-Amino-3-(4-phenoxyphenyl)-1H-pyrazolo[3,4-d]pyrimidin-1-yl)piperidin-1-yl)-N-methyl-2-(methylsulfonyl)pyrimidine-5-carboxamide]
IC50 (ITK, full length): > 1000 nM
0 min IC50 (nM), 3 nM EGFR [1]: none of the compounds, 8a, 8b, or 8d, exhibited measurable inhibition
IC50 [1]: > 1000 nM
IC50 (BTK, full length (2–659); 0 min preincubation IC50 (nM), 0 min preincubation): 3.6 nM
IC50 (BTK, full length (2–659); 60 min preincubation IC50 (nM), 60 min preincubation): 1.2 nM
fold change, 1 nM BTK (BTK, full length (2–659); IC50 0 min vs 60 min preincubation): 3.1
remaining binding at 1 µM (SRMS; @1000nM, read-out: %Control): 6.5%
remaining binding at 1 µM (SRMS; read-out: %Control @1000nM): 6.5%
difference in %Control versus compound Ib at 1 µM (INSR; @1000nM): 0%
remaining binding at 1 µM (INSR; @1000nM, read-out: %Control): 100%
remaining binding at 1 µM (INSR; read-out: %Control @1000nM): 100%
remaining binding at 1 µM (SRC; @1000nM, read-out: %Control): 43%
remaining binding at 1 µM (SRC; read-out: %Control @1000nM): 43%
difference in %Control versus compound Ib at 1 µM (EPHA1; @1000nM): -6%
remaining binding at 1 µM (EPHA1; @1000nM, read-out: %Control): 66%
remaining binding at 1 µM (EPHA1; read-out: %Control @1000nM): 66%
difference in %Control versus compound Ib at 1 µM (ERBB2; @1000nM): 5.5%
remaining binding at 1 µM (ERBB2; @1000nM, read-out: %Control): 5.5%
remaining binding at 1 µM (ERBB2; read-out: %Control @1000nM): 5.5%
difference in % of control versus compound Ib at 1 µM (EGFR(L858R,T790M); @1000nM): 49%
remaining binding at 1 µM (EGFR(L858R,T790M); @1000nM, read-out: %Control): 59%
remaining binding at 1 µM (EGFR(L858R,T790M); read-out: %Control @1000nM): 59%
difference in %Control versus compound Ib at 1 µM (FAK; @1000nM): 0%
remaining binding at 1 µM (FAK; @1000nM, read-out: %Control): 100%
remaining binding at 1 µM (FAK; read-out: %Control @1000nM): 100%
%Control difference from compound Ib at 1 µM (EPHA4; @1000nM): 9%
remaining binding at 1 µM (EPHA4; @1000nM, read-out: %Control): 100%
remaining binding at 1 µM (EPHA4; read-out: %Control @1000nM): 100%
difference in %Control versus compound Ib at 1 µM ([2]; @1000nM): 6%
remaining binding at 1 µM ([2]; @1000nM, read-out: %Control): 85%
remaining binding at 1 µM ([2]; read-out: %Control @1000nM): 85%
difference in %Control versus compound Ib at 1 µM (EPHA7; @1000nM): 4%
remaining binding at 1 µM (EPHA7; @1000nM, read-out: %Control): 99%
remaining binding at 1 µM (EPHA7; read-out: %Control @1000nM): 99%
%Control difference versus compound Ib at 1 µM ([3]; @1000nM): 5%
remaining binding at 1 µM ([3]; @1000nM, read-out: %Control): 100%
remaining binding at 1 µM ([3]; read-out: %Control @1000nM): 100%
